“Also recorded” adds a separate entry of the source. Ends that are not written are not given here.
Columns and labels:
L. inocua 8811 = experiment: Well test of bacteriocin activity (inhibition zones on agar); assay type: cell-based; details: 50 microliters of sakacin G solution, BHI agar, overnight at 37° C.
Description: (§1) • Bacterial strains and culture media. Lactobacillus sakei 2512 is cultured at 30° C. in MRS medium (DIFCO Laboratories) sterilised for 12 minutes at 110° C. The indicator strains are cultured in BHI medium (brain-heart infusion; DIFCO Laboratories) at 37° C. • Test of activity. BHI medium, supplemented with 10 g/l agar, is inoculated at 1% with a preculture of the indicator strain in stationary phase before being poured into a Petri dish. 50 microliters of sakacin G solution are placed in wells formed in cooled agar with a hole punch. The bacteriocin activity manifests itself in the appearance of inhibition zones around the wells after incubation overnight at 37° C. • Protein analysis. Sakacin G is analysed by mass spectrometry using a Perkin-Elmer Sciex API 165 device equipped with an Ionspray ionisation source. After lyophilisation, the active HPLC fraction is taken up in an acetonitrile/water solution (1:1) containing 0.1% formic acid, and then injected by infusion at a rate of 5 μl/minute.
(§2) The sakacin G sensitivity of 17 bacterial strains was tested by the well test method (see Materials and Methods).

[1] = test system: Lb. Delbrueckii DSM 20081; experiment: as above; assay type: cell-based
Description: as §1, §2

Lc. lactis ATCC11454 = experiment: as above; assay type: cell-based; details: 50 microliters of sakacin G solution, BHI agar, overnight at 37° C.
Description: as §1, §2

[2] = test system: Ln. Mesenteroides DSM 20240; experiment: as above; assay type: cell-based; details: 50 microliters of sakacin G solution, BHI agar, overnight at 37° C.
Description: as §1, §2

[3] = test system: Ln. Mesenteroides DSM 20484; experiment: as above; assay type: cell-based; details: 50 microliters of sakacin G solution, BHI agar, overnight at 37° C.
Description: as §1, §2

[4] = test system: Ln. Paramesenteroides DSM 20288; experiment: as above; assay type: cell-based; details: 50 microliters of sakacin G solution, BHI agar, overnight at 37° C.
Description: as §1, §2

[5] = test system: P. acidilactici ENSAIA 583; experiment: as above; assay type: cell-based; details: 50 microliters of sakacin G solution, BHI agar, overnight at 37° C.
Description: as §1, §2

Lb. Plantarum DSM 20174 = experiment: as above; assay type: cell-based, Lactobacillus plantarum
Description: as §1, §2

Lb brevis DSM 20054 = experiment: as above; assay type: cell-based, Lactobacillus brevis
Description: as §1, §2

Lb. casei DSM 20011 = experiment: as above; assay type: cell-based, Lactobacillus casei
Description: as §1, §2

Lb. sakei 2515 = experiment: as above; assay type: cell-based, Lactobacillus sakei
Description: as §1, §2

P. cerevisiae IP 5492 = experiment: as above; assay type: cell-based, Pediococcus cerevisiae
Description: as §1, §2

E. faecium ENSAIA 631 = experiment: as above; assay type: cell-based, Enterococcus faecium
Description: as §1, §2

E. faecalis ENSAIA 636 = experiment: as above; assay type: cell-based, Enterococcus faecalis; details: 50 microliters of sakacin G solution, BHI agar, overnight at 37° C.
Description: as §1, §2

E. faecalis IP 5430 = experiment: as above; assay type: cell-based, Enterococcus faecalis; details: 50 microliters of sakacin G solution, BHI agar, overnight at 37° C.
Description: as §1, §2

E. durans ENSAIA 630 = experiment: as above; assay type: cell-based, Enterococcus durans
Description: as §1, §2

L. ivanovi BUG 496 = experiment: as above; assay type: cell-based, Listeria ivanovii
Description: as §1, §2

Listeria strains = experiment: Inhibition spectrum, for Listeria; assay type: cell-based; details: all the Listeria strains tested
Description: as §1, §2

Enterococcus faecalis = experiment: Inhibition spectrum, Enterococcus faecalis; assay type: cell-based
Description: as §1, §2

sakacin G: class IIa anti-Listeria bacteriocin polypeptide from Lactobacillus sakei 2512, about 3834 Da, two disulfide bridges; mature sequence SEQ ID NO: 12 (KYYGNGVSCNSHGCSVNWGQAWTCGVNHLANGGHGVC; disulfide (positions not given here))
Radius of the inhibition halos (L. inocua 8811): 3 mm | Bacteriocin activity (in words) ([1]; Lactobacillus debrueckii): inactive | Radius of the inhibition halos ([1]; well test, 50 microliters of sakacin G solution, BHI agar, overnight at 37° C., Lb. Delbrueckii DSM 20081): 0 mm | Radius of the inhibition halos (Lc. lactis ATCC11454): 0 mm | Radius of the inhibition halos [2]: 0 mm | Radius of the inhibition halos [3]: 0 mm | Radius of the inhibition halos [4]: 0 mm | Radius of the inhibition halos [5]: 0 mm | Bacteriocin activity (in words) (Lb. Plantarum DSM 20174; Lactobacillus plantarum): inactive | Radius of the inhibition halos (Lb. Plantarum DSM 20174; well test, 50 microliters of sakacin G solution, BHI agar, overnight at 37° C., Lb. Plantarum DSM 20174): 0 mm | Bacteriocin activity (in words) (Lb brevis DSM 20054; Lactobacillus brevis): inactive | Radius of the inhibition halos (Lb brevis DSM 20054; well test, 50 microliters of sakacin G solution, BHI agar, overnight at 37° C., Lb brevis DSM 20054): 0 mm | Bacteriocin activity (in words) (Lb. casei DSM 20011; Lactobacillus casei): inactive | Radius of the inhibition halos (Lb. casei DSM 20011; well test, 50 microliters of sakacin G solution, BHI agar, overnight at 37° C., Lb. casei DSM 20011): 0 mm | Bacteriocin activity (in words) (Lb. sakei 2515; strains of Lactobacillus sakei other than Lactobacillus sakei 2512): especially effective | Radius of the inhibition halos (Lb. sakei 2515; well test, 50 microliters of sakacin G solution, BHI agar, overnight at 37° C., Lb. sakei 2515): 1 mm | Bacteriocin activity (in words) (P. cerevisiae IP 5492; Pediococcus cerevisiae): especially effective | Radius of the inhibition halos (P. cerevisiae IP 5492; well test, 50 microliters of sakacin G solution, BHI agar, overnight at 37° C., P. cerevisiae IP 5492): 1 mm | Bacteriocin activity (in words) (E. faecium ENSAIA 631; Enterococcus faecium): inactive; also recorded: not against Enterococcus faecium | Radius of the inhibition halos (E. faecium ENSAIA 631; well test, 50 microliters of sakacin G solution, BHI agar, overnight at 37° C., E. faecium ENSAIA 631): 0 mm | Radius of the inhibition halos (E. faecalis ENSAIA 636): 1 mm | Radius of the inhibition halos (E. faecalis IP 5430): 2 mm | Bacteriocin activity (in words) (E. durans ENSAIA 630; Enterococcus durans): especially effective; also recorded: active | Radius of the inhibition halos (E. durans ENSAIA 630; well test, 50 microliters of sakacin G solution, BHI agar, overnight at 37° C., E. durans ENSAIA 630): 2 mm | Activity of the purified HPLC fraction (in words) (L. ivanovi BUG 496; HPLC fraction, peak at 23 minutes, Listeria ivanovii BUG 496): active | Radius of the inhibition halos (L. ivanovi BUG 496; well test, 50 microliters of sakacin G solution, BHI agar, overnight at 37° C., L. ivanovi BUG 496): 6 mm | Bacteriocin activity (in words) (Listeria strains): especially effective; also recorded: active | Bacteriocin activity (in words) (Enterococcus faecalis): especially effective; also recorded: active

— US6855518B2, “Anti-listeria bacteriocin” (Rhodia Chimie, priority 2000, dated 2005)
